# Measurements from patent US4460508A, “5-Diazacycloalkylimidazo[1,2-c][1,3]benzodiazepines” (Ciba-Geigy Corporation, priority 1982, dated 1984).
# System: α-adrenergic
# Assay: α-adrenergic blocking activity in vitro
compound,measurement,value
"CN1CCN(C2=Nc3ccccc3Cc3nccn32)CC1 [example 1, 5-(4-methyl-1-piperazinyl)-11H-imidazo[1,2-c][1,3]benzodiazepine]",α-adrenergic blocking activity,only minimal
